The values that follow come from patent US5420339A, “Alpha-aryl or heteroaryl-substituted amide ester ACAT inhibitors” (Warner-Lambert Company, priority 1993, dated 1995).

Data set [1] can be described thus: in vivo adrenal toxicity screen in guinea pigs (Dominick et al.). The arrangement: species or system male guinea pigs of the Hartley strain. Conditions: 100 mg/kg daily gavage, 2 weeks; for toxicity class to the adrenal gland: oleic acid vehicle. As to the method: Male guinea pigs of the Hartley strain (450-500 g) were obtained from Charles River and randomly divided into treatment groups. They were fed standard guinea pig chow ad libitum and dosed daily (AM) by gavage (100 mg/kg). The test compounds were dissolved or suspended in an oleic acid vehicle to facilitate absorption. After 2 weeks the animals were sacrificed by CO2 asphyxiation in the nonfasted state 16 hours after the last dose. Adrenal glands were weighed, fixed in 10% formalin, processed by routine paraffin techniques, sectioned, and then stained with hematoxylin and eosin for light microscopy. Toxicity was defined by the incidence, severity, and complexity of adrenal histopathologic alterations in the zona fasciculata (e.g., adrenal cortical atrophy, increased coarse vacuolation, single-cell necrosis, inflammatory cell infiltrates, mineralization/ectopic bone formation, and increased cytoplasmic eosinophilia).

The nature of data set [2]: APCC in vivo screen: blood cholesterol in rats on PCC diet with cholic acid. Conditions: single dosing at 4 PM, PCC diet overnight with 1% or 0.5% cholic acid, sacrificed 8 AM. Details: species or system male Sprague-Dawley rats. The procedure:
The compounds were also evaluated in an in vivo screen designated APCC whereby male Sprague-Dawley rats (200 to 225 g) were randomly divided into treatment groups and dosed at 4 PM with either vehicle (CMC/Tween) or suspensions of compounds in vehicle. The normal chow diet was then replaced with the PCC diet with either 1% or 0.5% cholic acid. The rats consumed this diet ad libitum during the night and were sacrificed at 8 AM to obtain blood samples for cholesterol analysis using standard procedures. Statistical differences between mean cholesterol values for the same vehicle were determined using analysis of variance followed by Fisher-s least significant test.
The data appear in Table II where they are expressed as % change.

Molecules are shown by their SMILES.

On to `CCCCCCCCCCCCC(C)OC(=O)CC(=O)Nc1c(C(C)C)cccc1C(C)C` (racemic) [(±)3-[[2,6-bis(1-methylethyl)phenyl]amino]-3-oxo-propanoic acid, 1-methyltridecyl ester], for which, in data set [1], the “atrophy of the zona reticularis (incidence)” value is reported as “two of six”, the “cytotoxic zonal atrophy of the zona fasciculata (incidence)” value is given as “six of six”, the “increased coarse vacuoles (incidence)” value is listed as “two of six” and the “inflammatory cell infiltrates (incidence)” value is on record as “four of six”. Also, in data set [1], the “necrosis of the adrenal cortex (incidence)” value is “four of six” and the “toxicity class to the adrenal gland” value is on record as “highly toxic to the adrenal gland”.

Consider `CCCCCCCCCCCCC(C)OC(=O)C(C(=O)Nc1c(C(C)C)cccc1C(C)C)c1ccccc1` (racemic) [Example 1, (±)-Benzeneacetic acid, α-[[[2,6-bis(1-methylethyl)phenyl]amino]carbonyl]-, 1-methyltridecylester], for which the “APCC % Change TC” value in data set [2] is -61%. In data set [1], the “increased coarse vacuoles (incidence)” value is given as “one of six” and the “toxicity class to the adrenal gland” value is recorded as “nontoxic to the adrenal gland”.

`CCCCCCCCCCCCOC(=O)C(C(=O)Nc1c(C(C)C)cccc1C(C)C)c1ccccc1` (racemic) [Example 3, (±)-Benzeneacetic acid, α-[[[2,6-bis(1-methylethyl)phenyl]amino]carbonyl]-, dodecyl ester]: the “APCC % Change TC” value in data set [2] was -63%. For the same compound, in data set [1], the “increased coarse vacuoles (incidence)” value is reported as “five of six” and the “toxicity class to the adrenal gland” value is recorded as “nontoxic to the adrenal gland”.

In the case of `CCCCCCCCCCC(C)OC(=O)C(C(=O)Nc1c(C(C)C)cccc1C(C)C)c1ccccc1` (racemic) [Example 4, (±)-Benzeneacetic acid, α-[[[2,6-bis(1-methylethyl)phenyl]amino]carbonyl]-, 1-methylundecyl ester], in data set [2], the “APCC % Change TC” value is listed as -37%.

For the compound `CCCCCCCCCCCCCCOC(=O)C(C(=O)Nc1c(C(C)C)cccc1C(C)C)c1ccccc1` (racemic) [Example 5, (±)-Benzeneacetic acid, α-[[[2,6-bis(1-methylethyl)phenyl]amino]carbonyl]-, tetradecyl ester], the “APCC % Change TC” value in data set [2] was -49%.

As for `CCCCCCCCCCOC(=O)C(C(=O)Nc1c(C(C)C)cccc1C(C)C)c1ccccc1` (racemic) [Example 6, (±)-Benzeneacetic acid, α-[[[2,6-bis(1-methylethyl)phenyl]amino]carbonyl]-, decyl ester], in data set [2], the “APCC % Change TC” value is on record as -58%.

Turning to `CCCCCC(C)OC(=O)C(C(=O)Nc1c(C(C)C)cccc1C(C)C)c1ccccc1` (racemic) [Example 7, (±)-Benzeneacetic acid, α-[[[2,6-bis(1-methylethyl)phenyl]amino]carbonyl]-, 1-methylhexyl ester], the “APCC % Change TC” value in data set [2] is on record as -67%.

Turning to `CCCCCCCOC(=O)C(C(=O)Nc1c(C(C)C)cccc1C(C)C)c1ccccc1` (racemic) [Example 8, (±)-Benzeneacetic acid, α-[[[2,6-bis(1-methylethyl)phenyl]amino]carbonyl]-, heptyl ester], the “APCC % Change TC” value in data set [2] is recorded as -71%.

`CCCOC(=O)C(C(=O)Nc1c(C(C)C)cccc1C(C)C)c1ccccc1` (racemic) [Example 9, (±)-Benzeneacetic acid, α-[[[2,6-bis(1-methylethyl)phenyl]amino]carbonyl]-, propyl ester]: the “APCC % Change TC” value in data set [2] was -20%.

Regarding `CCCCCCCCOC(=O)C(C(=O)Nc1c(C(C)C)cccc1C(C)C)c1ccccc1` (racemic) [Example 10, (±)-Benzeneacetic acid, α-[[[2,6-bis(1-methylethyl)phenyl]amino]carbonyl]-, octyl ester], the “APCC % Change TC” value in data set [2] is -56%.

As for `CCCCCCCCCOC(=O)C(C(=O)Nc1c(C(C)C)cccc1C(C)C)c1ccccc1` (racemic) [Example 11, (±)-Benzeneacetic acid, α-[[[2,6-bis(1-methylethyl)phenyl]amino]carbonyl]-, nonyl ester], the “APCC % Change TC” value in data set [2] was -67%.

Consider `CCCCCCCCCCCCC(C)(C)OC(=O)C(C(=O)Nc1c(C(C)C)cccc1C(C)C)c1ccccc1` (racemic) [Example 12, (±)-Benzeneacetic acid, α-[[[2,6-bis(1-methylethyl)phenyl]amino]carbonyl]-, 1,1-dimethyltridecyl ester], for which, in data set [2], the “APCC % Change TC” value is listed as -26%.

Turning to `CCCCCCCCCCCCCCCCOC(=O)C(C(=O)Nc1c(C(C)C)cccc1C(C)C)c1ccccc1` (racemic) [Example 13, (±)-Benzeneacetic acid, α-[[[2,6-bis(1-methylethyl)phenyl]amino]carbonyl]-, hexadecyl ester], the “APCC % Change TC” value in data set [2] was -26%.

With `CCCCCCCCCCCCCCCCCCOC(=O)C(C(=O)Nc1c(C(C)C)cccc1C(C)C)c1ccccc1` (racemic) [Example 14, (±)-Benzeneacetic acid, α-[[[2,6-bis(1-methylethyl)phenyl]amino]carbonyl]-, octadecyl ester], the “APCC % Change TC” value in data set [2] is -25%.

Regarding `CCCCC(C)(C)OC(=O)C(C(=O)Nc1c(C(C)C)cccc1C(C)C)c1ccccc1` (racemic) [Example 15, (±)-Benzeneacetic acid, α-[[[2,6-bis(1-methylethyl)phenyl]amino]carbonyl]-, 1,1-dimethylpentyl ester], the “APCC % Change TC” value in data set [2] was -72%.

For the compound `CCCCCCCCCCCCCCC(C)OC(=O)C(C(=O)Nc1c(C(C)C)cccc1C(C)C)c1ccccc1` (racemic) [Example 16, (±)-Benzeneacetic acid, α-[[[2,6-bis(1-methylethyl)phenyl]amino]carbonyl]-, 1-methylpentadecyl ester], in data set [2], the “APCC % Change TC” value is given as -37%.

Regarding `CCCCCCCCCCCCC(C)OC(=O)C(C(=O)Nc1c(OC)cc(OC)cc1OC)c1ccccc1` (racemic) [Example 17, (±)-Benzeneacetic acid, α-[[(2,4,6-trimethoxyphenyl)amino]carbonyl]-, 1-methyltridecyl ester], in data set [2], the “APCC % Change TC” value was -59%.

Consider `CCCCCCCCCCCCOC(=O)C(C(=O)Nc1c(OC)cc(OC)cc1OC)c1ccccc1` (racemic) [Example 18, (±) -Benzeneacetic acid, α-[[(2,4,6-trimethoxyphenyl)amino]carbonyl]-, dodecyl ester], for which the “APCC % Change TC” value in data set [2] is given as -51%.

Take `CCCCCCCCCCCCOC(=O)C(C(=O)Nc1c(C(C)C)cccc1C(C)C)c1ccccn1` (racemic) [Example 19, (±)-2-pyridineacetic acid, α-[[[2,6-bis(1-methylethyl)phenyl]amino]carbonyl]-, dodecyl ester]: the “APCC % Change TC” value in data set [2] is listed as -43%.
